Reference: patent publication US7745477B2, “Heteroaryl and benzyl amide compounds” (Hoffman-La Roche Inc., priority 2006, dated 2010)

Target: T1, cholesteryl ester transfer protein (CETP) (Homo sapiens, UniProt P11597)
T1 construct: the source of CETP was human lipoprotein-deprived serum (LPDS); from tissue; host or cells: human lipoprotein-deprived serum (LPDS)
T1 sequence (P11597 18-493): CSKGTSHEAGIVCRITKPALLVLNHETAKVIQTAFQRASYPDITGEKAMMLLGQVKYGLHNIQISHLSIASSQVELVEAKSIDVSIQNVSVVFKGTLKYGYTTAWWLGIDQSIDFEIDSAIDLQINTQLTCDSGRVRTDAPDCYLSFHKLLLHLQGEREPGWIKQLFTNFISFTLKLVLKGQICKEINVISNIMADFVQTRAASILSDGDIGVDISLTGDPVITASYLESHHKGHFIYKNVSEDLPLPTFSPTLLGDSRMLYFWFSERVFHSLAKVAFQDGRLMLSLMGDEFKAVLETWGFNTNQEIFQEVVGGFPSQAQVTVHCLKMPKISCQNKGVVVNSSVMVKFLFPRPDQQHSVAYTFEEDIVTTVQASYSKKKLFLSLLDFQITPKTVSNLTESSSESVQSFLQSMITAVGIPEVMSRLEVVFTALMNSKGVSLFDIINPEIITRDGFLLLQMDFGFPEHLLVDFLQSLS
Experiment: CETP activity SPA assay in the presence of plasma (source of CETP: human lipoprotein-deprived serum, LPDS)
Format: biochemical
Settings: CETP from human lipoprotein-deprived serum (LPDS); transfer of radiolabeled cholesteryl ester from HDL donor to biotin-labeled LDL acceptor particles
Experimental: Activity of CETP inhibitors was determined using a buffer assay system. Partially purified CETP transferred radiolabeled cholesteryl ester from HDL donor particles to biotin-labeled LDL acceptor particles. The reaction was stopped by addition of streptavidin-coupled scintillation proximity assay (SPA) beads. These beads captured the biotinylated acceptor particles and transferred radioactivity was measured. The assay system was purchased and performed according to manufacturer's recommendations (Amersham Biosciences). Inhibitory activity of compounds was determined as percentage of positive control activity containing CETP together with donor and acceptor particles. Serial dilution of compounds was performed in order to determine the IC50 values.
Activity of the compounds was subsequently measured in the presence of plasma using the same assay as described above except that the source of CETP was human lipoprotein-deprived serum (LPDS). Inhibitory activity of compounds was determined as percentage of positive control activity containing all the assay components except compound. Serial dilution of compounds was performed in order to determine the IC50 values.

| IC50 | Compound |
| --- | --- |
| 66800 nM | CC(C)(C)c1ccc(CN(CCc2ccc(Cl)c(Cl)c2)C(=O)c2cnccc2Cl)cc1 [Compound B3, N-(4-tert-Butyl-benzyl)-4-chloro-N-[2-(3,4-dichloro-phenyl)-ethyl]-nicotinamide] |
| 1250 nM | O=C(c1cc(Cl)cc(Cl)c1)N(CCc1ccc(Cl)cc1)Cc1ccc(C(F)(C(F)(F)F)C(F)(F)F)cc1 [Compound B104, 3,5-Dichloro-N-[2-(4-chloro-phenyl)-ethyl]-N-[4-(1,2,2,2-tetrafluoro-1-trifluoromethyl-ethyl)-benzyl]-benzamide] |
| 409 nM | CCC(C)(C)c1ccc(CN(CCc2ccc(Cl)cc2)C(=O)c2cc(Cl)cc(Cl)c2)cc1 [Compound B108, 3,5-Dichloro-N-[2-(4-chloro-phenyl)-ethyl]-N-[4-(1,1-dimethyl-propyl)-benzyl]-benzamide] |
